Test results from patent US20080311589A1, “METHOD OF HIGH-THROUGHPUT SCREENING OF MOLECULES AND COMPOUNDS FOR THEIR EFFECTS ON BIOLOGICAL AND CHEMICAL PROCESSES” (priority 1999, published 2008).

Assays:
[1] = tested on: transiently transfected TGFβ-responsive reporter; experiment: transient transfection luciferase assay, p3TPLux; assay type: cell-based, mink
Description: LUCIFERASE ASSAYS: Our transient transfection luciferase assay was described previously by us (Stockwell et al., Chem Biol 5:385, 1998). Briefly, 100,000 Mv1Lu mink lung epithelial cells were transiently transfected in 12-well dishes with 400 ng p3TPLux or pNFkB-Lux, with or without 50 ng pFC-MEKK, in 300 μL minimal essential medium with non-essential amino acids. The DEAE-dextran/chloroquine/DMSO methods was used for transfection (Stockwell et al., Chem Biol 6:71, 1999). After cell lysis in 120 μL lysis buffer, a Beckman LS 6500 liquid scintillation counter was used in single photon mode to quantitate luminescence. For detection of luciferase activity in 6F cells (including the primary screen), 20,000 6F cells were seeded in 50 μL of 10% mink medium in each well of a white 384-well plate (Nalge Nune International; Naperville, Ill.; cat#164610) using a Multidrop 384 liquid dispenser (Lab Systems; Helsinki, Finland). After 16 hours, medium was removed using a 24 channel wand (V&P Scientific, Inc.; San Diego, Calif.; cat#VP 186L), the cells were washed with 75 μL of 0.2% mink medium (containing 0.2% FBS), and reagents were added in 40 μL of 0.2% medium. For the primary screen, reagents were added by pin transfer using 384 polypropylene pin arrays (Matrix Technologies; Hudson, N.H.). After 24 hours, the cells were cooled on ice and washed twice with 75 μL Hanks Balanced Salt Solution (HBSS; GibcoBRL; cat#24020-117). Then 20 μL lysis buffer (25 mM glycylglycine (Sigma; cat#E-0396), 1% Triton X-100 (Sigma; cat#T-9284), 1 mM dithiothreitol (DTT; Sigma; cat#D-5545), 1 mM phenylmethylsulfonyl fluoride (PMSF; Sigma; cat#P-7626)) was added to each well with a Multidrop. After incubating the cells for five minutes on ice, 20 μL of ATP/luciferin solution was added (25 mM glycylglycine pH 7.8, 15 mM MgSO4, 4 mM EGTA, 6.25 mM K2HPO4 (Sigma; cat#P5504) pH 7.8, 5 mM DTT, 75 μM D-luciferin (Sigma, cat# L-9504, 2 mM ATP (Sigma; cat#A-7699)). Light output was immediately measured with an Analyst 384-well platereader (LJL), with 0.5 second counting time per well.

[2] = tested on: Golgi apparatus or lysosomes; experiment: distribution of lysosomes and Golgi apparatus; assay type: cell-based; settings: concentrations that caused strong spindle defects; interphase cells
Description: We investigated the phenotype of mammalian cells (BS-C-I) treated with the compounds of group III. Live images were taken as described previously (Cramer et al., Curr. Op. Cell Biol. 6:82, 1994); for immunofluoresence, the cells were stained with a Golgi-specific antibody (anti-Golgi 58K protein antibodies [Sigma]) or with anti-α-tubulin antibodies (DM1 A [Sigma]); actin was visualized using TRIC-conjugated phalliodin (Sigma); lysosomes were stained with LysoTracker (Molecular Probes; Palmiter et al., EMBO J. 15:1784, 1996). Our examination of the distribution of microtubules, actin, and chromatin in fixed cells by fluorescence microscopy allowed us to divide the small molecules into three classes. Twenty-seven had no observable effect on the microtubule and actin cytoskeleton or on cheomosome distribution. Consistent with the data from the cytoblot assay we observed an increase in the number of normal appearing mitotic cells. These compounds may increase the mitotic index by perturbing the function of proteins that regulate progression through the cell cycle, e.g., anaphase regulators, rather than structural or mechanochemical components of the mitotic spindle. It is also possible that these compounds have a subtle effect on cytoskeletal dynamics or chromosome organization that may not be observable in fixed cells. […]

activation of transiently versus stably transfected TGFβ-responsive reporter [1]	Substance	localization and organization of Golgi apparatus or lysosomes [2]
equally effective	TGF-β: anti-mitogen transforming growth factor β, multifunctional polypeptide signaling factor	
	monastrol	did not affect localization and organization of the Golgi apparatus or lysosomes in interphase cells
